Structures are written as SMILES.

The results in this text go back to patent US10519154B2, “7-substituted 1-pyridyl-naphthyridine-3-carboxylic acid amides and use thereof” (Bayer Pharma Aktiengesellschaft, priority 2016, dated 2019).

In this test the target is T1, human M2 receptor (Homo sapiens, UniProt P08172).
T1 sequence (P08172 1-466): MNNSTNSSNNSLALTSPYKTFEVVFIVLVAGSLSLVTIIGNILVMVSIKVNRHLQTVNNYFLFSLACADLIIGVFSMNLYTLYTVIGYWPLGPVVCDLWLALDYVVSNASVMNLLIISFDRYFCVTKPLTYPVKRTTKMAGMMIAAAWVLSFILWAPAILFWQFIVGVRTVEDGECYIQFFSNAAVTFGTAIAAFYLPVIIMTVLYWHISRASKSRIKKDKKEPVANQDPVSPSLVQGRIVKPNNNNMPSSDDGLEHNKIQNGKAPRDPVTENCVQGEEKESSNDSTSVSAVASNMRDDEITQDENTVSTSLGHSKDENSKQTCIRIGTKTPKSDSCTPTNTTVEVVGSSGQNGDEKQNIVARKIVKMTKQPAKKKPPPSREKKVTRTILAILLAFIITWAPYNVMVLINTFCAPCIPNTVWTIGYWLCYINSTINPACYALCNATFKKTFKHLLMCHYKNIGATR
In words: Functional M2-GIRK1/4 activation test: allosteric potency (EC50) and efficiency. As to conditions: for EC50: Receptor activity EC50, CHO-DUKX-M2-GIRK cells, acetylcholine at EC20, in some cases mean of two or more determinations; for Emax: read-out: Efficiency, boosting of the acetylcholine effect at EC20 acetylcholine concentration, CHO-DUKX-M2-GIRK cells.

Consider `CC[C@H](NC(=O)c1cn(-c2ncc(F)cc2F)c2nc(N3CC(O)C3)ccc2c1=O)C(F)(F)F` [Example 133, 1-(3,5-Difluoropyridin-2-yl)-7-(3-hydroxyazetidin-1-yl)-4-oxo-N-[(2S)-1,1,1-trifluorobutan-2-yl]-1,4-dihydro-1,8-naphthyridine-3-carboxamide], for which the EC50 amounted to 315 nM and the Emax was 92%.

Turning to `O=C(N[C@H](C1CC1)C(F)(F)F)c1cn(-c2ncccc2F)c2nc(N3C[C@@H](O)CC3=O)ccc2c1=O` [Example 139, N-[(1R)-1-Cyclopropyl-2,2,2-trifluoroethyl]-1-(3-fluoropyridin-2-yl)-7-[(4S)-4-hydroxy-2-oxopyrrolidin-1-yl]-4-oxo-1,4-dihydro-1,8-naphthyridine-3-carboxamide], the 50% effective concentration (EC50) amounted to 230 nM and the Emax was determined as 100%.

On to `CCC(COC(F)(F)F)NC(=O)c1cn(-c2ncc(F)cc2F)c2nc(N3C[C@@H](C)NC3=O)ccc2c1=O` (stereo partly drawn) [Example 141, 1-(3,5-Difluoropyridin-2-yl)-7-[(4R)-4-methyl-2-oxoimidazolidin-1-yl]-4-oxo-N-[1-(trifluoromethoxy)butan-2-yl]-1,4-dihydro-1,8-naphthyridine-3-carboxamide], for which it took 18 nM to reach a half-maximal effect (EC50) and the Emax came out at 95%.

On to `C[C@@H]1CN(c2ccc3c(=O)c(C(=O)N[C@@H](C4CC4)C(F)(F)F)cn(-c4ncc(F)cc4F)c3n2)C(=O)N1` [Example 142, N-[(1S)-1-cyclopropyl-2,2,2-trifluoroethyl]-1-(3,5-difluoropyridin-2-yl)-7-[(4R)-4-methyl-2-oxoimidazolidin-1-yl]-4-oxo-1,4-dihydro-1,8-naphthyridine-3-carboxamide], for which the EC50 turned out to be 47 nM and the Emax was determined as 94.5%.

As to `CC[C@H](NC(=O)c1cn(-c2ncc(F)cc2F)c2nc(N3C[C@@H](C)NC3=O)ccc2c1=O)C(F)(F)F` [Example 143, 1-(3,5-difluoropyridin-2-yl)-7-[(4R)-4-methyl-2-oxoimidazolidin-1-yl]-4-oxo-N-[(2S)-1,1,1-trifluorobutan-2-yl]-1,4-dihydro-1,8-naphthyridine-3-carboxamide], the midpoint of the response, the EC50, lay at 90 nM and the Emax worked out at 90%.

Take `C[C@@H]1CN(c2ccc3c(=O)c(C(=O)NC(C)(C)C(F)F)cn(-c4ncc(F)cc4F)c3n2)C(=O)N1` [Example 144, N-(1,1-difluoro-2-methylpropan-2-yl)-1-(3,5-difluoropyridin-2-yl)-7-[(4R)-4-methyl-2-oxoimidazolidin-1-yl]-4-oxo-1,4-dihydro-1,8-naphthyridine-3-carboxamide]: a half-maximal response (EC50) required 150 nM and the Emax was found to be 92%.

As to `CC(C)(CC(F)(F)F)NC(=O)c1cn(-c2ncc(F)cc2F)c2nc(N3CCNC3=O)ccc2c1=O` [Example 145, 1-(3,5-Difluoropyridin-2-yl)-4-oxo-7-(2-oxoimidazolidin-1-yl)-N-(4,4,4-trifluoro-2-methylbutan-2-yl)-1,4-dihydro-1,8-naphthyridine-3-carboxamide], the midpoint of the response, the EC50, lay at 435 nM and the Emax was 98.5%.

Turning to `O=C(NC1CCC1)c1cn(-c2ncc(F)cc2F)c2nc(N3CCNC3=O)ccc2c1=O` [Example 146, N-Cyclobutyl-1-(3,5-difluoropyridin-2-yl)-4-oxo-7-(2-oxoimidazolidin-1-yl)-1,4-dihydro-1,8-naphthyridine-3-carboxamide], the midpoint of the response, the EC50, lay at 910 nM and the Emax was found to be 96%.

As for `O=C(NC1(C(F)(F)F)CCC1)c1cn(-c2ncc(F)cc2F)c2nc(N3CCNC3=O)ccc2c1=O` [Example 150, 1-(3,5-Difluoropyridin-2-yl)-4-oxo-7-(2-oxoimidazolidin-1-yl)-N-[1-(trifluoromethyl)cyclobutyl]-1,4-dihydro-1,8-naphthyridine-3-carboxamide], the half-maximal effective concentration (EC50) worked out at 375 nM and the Emax stood at 88%.

For `O=C(NC1(C(F)(F)F)CCC1)c1cn(-c2ncc(F)cc2F)c2nc(N3C[C@@H](O)CC3=O)ccc2c1=O` [Example 151, 1-(3,5-Difluoropyridin-2-yl)-7-[(4S)-4-hydroxy-2-oxopyrrolidin-1-yl]-4-oxo-N-[1-(trifluoromethyl)cyclobutyl]-1,4-dihydro-1,8-naphthyridine-3-carboxamide], the EC50 amounted to 290 nM and the Emax is 99%.

As for `CC(NC(=O)c1cn(-c2ncc(F)cc2F)c2nc(N3C[C@@H](O)[C@H](O)C3)ccc2c1=O)(C(F)(F)F)C(F)(F)F` [Example 152, 1-(3,5-Difluoropyridin-2-yl)-7-[(3R,4R)-3,4-dihydroxypyrrolidin-1-yl]-N-(1,1,1,3,3,3-hexafluoro-2-methylpropan-2-yl)-4-oxo-1,4-dihydro-1,8-naphthyridine-3-carboxamide], a half-maximal effect (EC50) was put at 103 nM and the Emax amounted to 99.5%.

For `CC(NC(=O)c1cn(-c2ncc(F)cc2F)c2nc(N3C[C@@H](O)[C@H](O)C3)ccc2c1=O)(C1CC1)C(F)(F)F` (some centres unmarked) [Example 153], the EC50 was determined as 200 nM and the Emax came to 100%.

With `CC(C)C(NC(=O)c1cn(-c2ncc(F)cc2F)c2nc(N3C[C@@H](O)CC3=O)ccc2c1=O)C(F)(F)F` (stereo partly drawn) [Example 154, 1-(3,5-Difluoropyridin-2-yl)-7-[(4S)-4-hydroxy-2-oxopyrrolidin-1-yl]-4-oxo-N-[1,1,1-trifluoro-3-methylbutan-2-yl]-1,4-dihydro-1,8-naphthyridine-3-carboxamide], the concentration giving a half-maximal response (EC50) came out at 89 nM and the Emax amounted to 100%.

As for `O=C(NC1(C(F)(F)F)CCC1)c1cn(-c2ncc(F)cc2F)c2nc(N3C[C@@H](O)[C@H](O)C3)ccc2c1=O` [Example 155, 1-(3,5-Difluoropyridin-2-yl)-7-[(3R,4R)-3,4-dihydroxypyrrolidin-1-yl]-4-oxo-N-[1-(trifluoromethyl)cyclobutyl]-1,4-dihydro-1,8-naphthyridine-3-carboxamide], the EC50 was found to be 360 nM and the Emax was 100%.

Take `CC(C)C[C@@H](NC(=O)c1cn(-c2ncc(F)cc2F)c2nc(N3CCNC3=O)ccc2c1=O)C(F)(F)F` [Example 156, 1-(3,5-Difluoropyridin-2-yl)-4-oxo-7-(2-oxoimidazolidin-1-yl)-N-[-(2R)-1,1,1-trifluoro-4-methylpentan-2-yl]-1,4-dihydro-1,8-naphthyridine-3-carboxamide]: the EC50 was determined as 36 nM and the Emax amounted to 100%.

Take `CC(C)C[C@H](NC(=O)c1cn(-c2ncc(F)cc2F)c2nc(N3CCNC3=O)ccc2c1=O)C(F)(F)F` [Example 157, 1-(3,5-Difluoropyridin-2-yl)-4-oxo-7-(2-oxoimidazolidin-1-yl)-N-[(2S)-1,1,1-trifluoro-4-methylpentan-2-yl]-1,4-dihydro-1,8-naphthyridine-3-carboxamide]: the response was half-maximal at 50 nM (EC50) and the Emax was determined as 100%.

Regarding `O=C(NC(C(F)(F)F)C(F)(F)F)c1cn(-c2ncc(F)cc2F)c2nc(N3CCNC3=O)ccc2c1=O` [Example 158, 1-(3,5-Difluoropyridin-2-yl)-N-(1,1,1,3,3,3-hexafluoropropan-2-yl)-4-oxo-7-(2-oxoimidazolidin-1-yl)-1,4-dihydro-1,8-naphthyridine-3-carboxamide], the EC50 turned out to be 115 nM and the Emax is 90.5%.

For `O=C(NC(CC(F)(F)F)C(F)(F)F)c1cn(-c2ncc(F)cc2F)c2nc(N3C[C@@H](O)CC3=O)ccc2c1=O` (stereo partly drawn) [Example 159, 1-(3,5-Difluoropyridin-2-yl)-N-[1,1,1,4,4,4-hexafluorobutan-2-yl]-7-[(4S)-4-hydroxy-2-oxopyrrolidin-1-yl]-4-oxo-1,4-dihydro-1,8-naphthyridine-3-carboxamide], the EC50 is 94 nM and the Emax came to 100%.

Turning to `O=C(NC(CC(F)(F)F)C(F)(F)F)c1cn(-c2ncc(F)cc2F)c2nc(N3C[C@@H](O)[C@H](O)C3)ccc2c1=O` (stereo partly drawn) [Example 160, 1-(3,5-Difluoropyridin-2-yl)-7-[(3R,4R)-3,4-dihydroxypyrrolidin-1-yl]-N-[1,1,1,4,4,4-hexafluorobutan-2-yl]-4-oxo-1,4-dihydro-1,8-naphthyridine-3-carboxamide], the midpoint of the response, the EC50, lay at 155 nM and the Emax worked out at 90.5%.

With `O=C(N[C@@H](C1CC1)C(F)(F)F)c1cn(-c2ncc(F)cc2F)c2nc(N3CCN(CCO)C3=O)ccc2c1=O` [Example 167, N-[(1S)-1-Cyclopropyl-2,2,2-trifluoroethyl]-1-(3,5-difluoropyridin-2-yl)-7-[3-(2-hydroxyethyl)-2-oxoimidazolidin-1-yl]-4-oxo-1,4-dihydro-1,8-naphthyridine-3-carboxamide], the EC50 turned out to be 420 nM and the Emax amounted to 92%.

Regarding `O=C(NC1CCC1)c1cn(-c2ncc(F)cc2F)c2nc(N3C[C@@H](O)[C@H](O)C3)ccc2c1=O` [Example 168, N-Cyclobutyl-1-(3,5-difluoropyridin-2-yl)-7-[(3R,4R)-3,4-dihydroxypyrrolidin-1-yl]-4-oxo-1,4-dihydro-1,8-naphthyridine-3-carboxamide], it took 2850 nM to reach a half-maximal effect (EC50) and the Emax was 84.5%.

Take `CC1(NC(=O)c2cn(-c3ncc(F)cc3F)c3nc(N4C[C@@H](O)[C@H](O)C4)ccc3c2=O)CC(F)(F)C1` [Example 170, N-(3,3-Difluoro-1-methylcyclobutyl)-1-(3,5-difluoropyridin-2-yl)-7-[(3R,4R)-3,4-dihydroxypyrrolidin-1-yl]-4-oxo-1,4-dihydro-1,8-naphthyridine-3-carboxamide]: the midpoint of the response, the EC50, lay at 2250 nM and the Emax was found to be 86%.
